# ChEMBL document CHEMBL3885861, “Open TG-GATES”
# Species on record: Rattus norvegicus
# Test: Open TG-GATES - Regimen: Single
# Assay type: toxicity, organism-based, Sprague-Dawley
# Parameters: regimen Single, gender Male, age 6 weeks
# Settings: in vivo, po, 0 mg/kg, route gavage, dose level Control; for APTT / Bas / Eos / Fbg / Hb / Ht / Lym / MCHC / MCV / Mono / Neu / PT / Plat / RBC / Ret / WBC: tissue Blood; for KIDNEY_L / KIDNEY_R / KIDNEY_TOTAL: tissue Kidney; for LIVER: tissue Liver; for ALP / ALT / AST / BUN / CRE / Ca / Cl / DBIL / GLC / IP / K / LDH / Na / PL / RALB / TBIL / TC / TG / TP / gamma-GTP: tissue Plasma
smiles,measurement,setting,value
CS(=O)(=O)Nc1ccc([N+](=O)[O-])cc1Oc1ccccc1 [NIMESULIDE],TERMINAL_BW,3 h,201.3 g
same,APTT,3 h,17.1 s
same,Bas,3 h,0%
same,Eos,3 h,1.4%
same,Fbg,3 h,212 mg/dL
same,Hb,3 h,14.1 g/dL
same,Ht,3 h,41.1%
same,Lym,3 h,77%
same,MCHC,3 h,34.3%
same,MCV,3 h,64.2 fL
same,Mono,3 h,6.2%
same,Neu,3 h,15.6%
same,PT,3 h,12.4 s
same,Plat,3 h,118.2 x10_4/uL
same,RBC,3 h,640.8 x10_4/ul
same,Ret,3 h,10.6%
same,WBC,3 h,89.8 x10_2/uL
same,KIDNEY_L,3 h,0.9 g
same,KIDNEY_R,3 h,0.9 g
same,KIDNEY_TOTAL,3 h,1.9 g
same,LIVER,3 h,9.7 g
same,ALP,3 h,917.4 IU/L
same,ALT,3 h,37.4 IU/L
same,AST,3 h,63.4 IU/L
same,BUN,3 h,12.4 mg/dL
same,CRE,3 h,0.5 mg/dL
same,Ca,3 h,11 mg/dL
same,Cl,3 h,105.4 meq/L
same,DBIL,3 h,0.048 mg/dL
same,GLC,3 h,197.2 mg/dL
same,IP,3 h,9.6 mg/dL
same,K,3 h,4.8 meq/L
same,LDH,3 h,65.8 IU/L
same,Na,3 h,141.8 meq/L
same,PL,3 h,133.6 mg/dL
same,RALB,3 h,3.7 g/dL
same,TBIL,3 h,0.3 mg/dL
same,TC,3 h,75 mg/dL
same,TG,3 h,57.4 mg/dL
same,TP,3 h,5.3 g/dL
same,gamma-GTP,3 h,1.6 IU/L
same,TERMINAL_BW,6 h,196.6 g
same,APTT,6 h,17.7 s
same,Bas,6 h,0%
same,Eos,6 h,1%
same,Fbg,6 h,209.6 mg/dL
same,Hb,6 h,13.6 g/dL
same,Ht,6 h,40.3%
same,Lym,6 h,72.6%
same,MCHC,6 h,33.7%
same,MCV,6 h,65.3 fL
same,Mono,6 h,7.8%
same,Neu,6 h,19%
same,PT,6 h,12.5 s
same,Plat,6 h,116.9 x10_4/uL
same,RBC,6 h,617.4 x10_4/ul
same,Ret,6 h,11.4%
same,WBC,6 h,109.3 x10_2/uL
same,KIDNEY_L,6 h,0.8 g
same,KIDNEY_R,6 h,0.9 g
same,KIDNEY_TOTAL,6 h,1.7 g
same,LIVER,6 h,8.5 g
same,ALP,6 h,832.8 IU/L
same,ALT,6 h,35.8 IU/L
same,AST,6 h,63.2 IU/L
same,BUN,6 h,12.4 mg/dL
same,CRE,6 h,0.6 mg/dL
same,Ca,6 h,10.7 mg/dL
same,Cl,6 h,105.6 meq/L
same,DBIL,6 h,0.062 mg/dL
same,GLC,6 h,188 mg/dL
same,IP,6 h,10.2 mg/dL
same,K,6 h,4.9 meq/L
same,LDH,6 h,62.6 IU/L
same,Na,6 h,140.4 meq/L
same,PL,6 h,139.6 mg/dL
same,RALB,6 h,3.7 g/dL
same,TBIL,6 h,0.4 mg/dL
same,TC,6 h,83.2 mg/dL
same,TG,6 h,52.8 mg/dL
same,TP,6 h,5.2 g/dL
same,gamma-GTP,6 h,2 IU/L
same,TERMINAL_BW,9 h,196.3 g
same,APTT,9 h,17.5 s
same,Bas,9 h,0%
same,Eos,9 h,1%
same,Fbg,9 h,204.8 mg/dL
same,Hb,9 h,13.4 g/dL
same,Ht,9 h,39.5%
same,Lym,9 h,71.6%
same,MCHC,9 h,33.9%
same,MCV,9 h,64.3 fL
same,Mono,9 h,9%
same,Neu,9 h,18.6%
same,PT,9 h,12.4 s
same,Plat,9 h,110.8 x10_4/uL
same,RBC,9 h,614 x10_4/ul
same,Ret,9 h,10.8%
same,WBC,9 h,94 x10_2/uL
same,KIDNEY_L,9 h,0.9 g
same,KIDNEY_R,9 h,1 g
same,KIDNEY_TOTAL,9 h,1.9 g
same,LIVER,9 h,8.3 g
same,ALP,9 h,898.6 IU/L
same,ALT,9 h,31.4 IU/L
same,AST,9 h,59.8 IU/L
same,BUN,9 h,12.4 mg/dL
same,CRE,9 h,0.5 mg/dL
same,Ca,9 h,10.6 mg/dL
same,Cl,9 h,106 meq/L
same,DBIL,9 h,0.028 mg/dL
same,GLC,9 h,193.6 mg/dL
same,IP,9 h,10.3 mg/dL
same,K,9 h,5 meq/L
same,LDH,9 h,79.2 IU/L
same,Na,9 h,138.4 meq/L
same,PL,9 h,128.4 mg/dL
same,RALB,9 h,4 g/dL
same,TBIL,9 h,0.3 mg/dL
same,TC,9 h,70.8 mg/dL
same,TG,9 h,47.6 mg/dL
same,TP,9 h,5.3 g/dL
same,gamma-GTP,9 h,1.2 IU/L
same,TERMINAL_BW,24 h,217.2 g
same,APTT,24 h,16.3 s
same,Bas,24 h,0%
same,Eos,24 h,1%
same,Fbg,24 h,201 mg/dL
same,Hb,24 h,13.1 g/dL
same,Ht,24 h,38.9%
same,Lym,24 h,71.6%
same,MCHC,24 h,33.7%
same,MCV,24 h,66 fL
same,Mono,24 h,10.8%
same,Neu,24 h,16.6%
same,PT,24 h,11.7 s
same,Plat,24 h,118.1 x10_4/uL
same,RBC,24 h,590.2 x10_4/ul
same,Ret,24 h,10.9%
same,WBC,24 h,107.9 x10_2/uL
same,KIDNEY_L,24 h,1 g
same,KIDNEY_R,24 h,1 g
same,KIDNEY_TOTAL,24 h,1.9 g
same,LIVER,24 h,10.4 g
same,ALP,24 h,1023 IU/L
same,ALT,24 h,35 IU/L
same,AST,24 h,62.8 IU/L
same,BUN,24 h,18.4 mg/dL
same,CRE,24 h,0.5 mg/dL
same,Ca,24 h,10.7 mg/dL
same,Cl,24 h,104.4 meq/L
same,DBIL,24 h,0.012 mg/dL
same,GLC,24 h,190.4 mg/dL
same,IP,24 h,7.8 mg/dL
same,K,24 h,4.9 meq/L
same,LDH,24 h,81.4 IU/L
same,Na,24 h,139.6 meq/L
same,PL,24 h,150.8 mg/dL
same,RALB,24 h,4.1 g/dL
same,TBIL,24 h,0.3 mg/dL
same,TC,24 h,79.8 mg/dL
same,TG,24 h,86.8 mg/dL
same,TP,24 h,5.5 g/dL
same,gamma-GTP,24 h,1.8 IU/L
